Laboratory results: article PMC9952520, “Anti-Biofilm Effects of Rationally Designed Peptides against Planktonic Cells and Pre-Formed Biofilm of Pseudomonas aeruginosa” (Antibiotics, 2023)
Ends that are not written are not given here.

Key:
planktonic DRPa 4007 = experiment: Growth inhibition of planktonic cells in BHI; format: cell-based, Pseudomonas aeruginosa; settings: BHI broth, 24 h at 37 °C, OD600
Experimental: (§1) To investigate the growth inhibition of peptides and antibiotics against planktonic P. aeruginosa cells, a microdilution assay was applied. […] After 24 h incubation at 37 °C with agitation, the growth inhibition was calculated by the absorbance measurement of bacterial turbidity at 600 nm using a Microplate Reader (SpectraMax M5, Molecular Devices, Sunnyvale, CA, USA). The assay was performed in triplicate. The percentage of […] was calculated as follows:Growth inhibition (%) = 100 − ((OD600 in sample treatment − OD600 in untreated bacteria)/(OD600 in untreated sample − OD600 in untreated bacteria) × 100) Sample treatment: adding peptides or antibiotics in bacterial suspensions; untreated bacteria: culture medium without bacteria and samples; untreated sample: bacterial suspension without samples.

[1] = system: planktonic P. aeruginosa ATCC 27853; experiment: Growth inhibition of planktonic cells in BHI; format: cell-based, Pseudomonas aeruginosa; settings: BHI broth, 24 h at 37 °C, OD600
Experimental: as §1

[2] = system: Drug-Sensitive P. aeruginosa (ATCC 27853); experiment: microbe, parasite or virus in culture; format: cell-based, Pseudomonas aeruginosa; settings: microdilution, 10 mM sodium phosphate pH 7.2 + 20% MH broth, 24 h at 37 °C, turbidity OD600, triplicate
Experimental: (§2) Pseudomonas aeruginosa ATCC 27853 (drug-sensitive strain) was obtained from the American Type Culture Collection and drug-resistant P. aeruginosa (DRPa)-3904, 4830, 4891, 4007, and 5018 were isolated from patients with otitis media in a hospital. DRPa strains were obtained from GC Lab (Yongin-Si, Gyeonggi-do, Korea) for identification and antibiotic susceptibility testing. All strains were grown in a Mueller–Hinton (MH) broth containing 0.5% NaCl under an aerobic condition at 37 °C.
(§3) Pregrown bacteria were suspended in 10 mM sodium phosphate (SP, pH 7.2) supplemented with 20% MH broth. Evaluation of antibacterial effects in variable ionic strengths was performed with the following buffers: 10 mM HEPES, 10 mM NaCl, pH 7.4 + 10% MH (buffer I), 10 mM HEPES, 150 mM NaCl, pH 7.4 + 10% MH (buffer II), 10 mM HEPES, 5 mM MgCl2, pH 7.4 + 10% MH (buffer III), and 10 mM HEPES, 150 mM NaCl, 5 mM MgCl2, pH 7.4 + 10% MH (buffer IV). Fifty µL of the cell suspension (1 × 10^6 colony forming unit (CFU)/mL) was added to fifty µL of two-fold serially diluted peptide solutions and antibiotics (0.125–256 µM), followed by incubation for 24 h at 37 °C. The positive growth control was bacterial suspension without peptides and antibiotics and the negative control was only medium. MICs were evaluated by measuring the turbidity of cell solutions at OD600 and were defined as the lowest concentration of peptide or antibiotics that inhibited visible bacterial growth. The assays were performed in triplicate.

DRPa 4007 biofilm = experiment: Inhibition of biofilm formation, crystal violet staining; format: cell-based; settings: Pseudomonas aeruginosa, BHI + 2% sucrose, 24 h at 37 °C, crystal violet OD570, triplicate
Experimental: (§4) Sucrose was added to enhance bacterial biofilm formation. Unattached bacteria were removed by washing with SP buffer and the remaining biofilm was fixed with methanol for 15 min. After air-drying for 30 min at room temperature, the plate was stained with 0.1% crystal violet (CV) for 5 min, followed by carefully washing with water and adding 95% ethanol to each well. The absorbance of the plate at 570 nm was measured using a Microplate Reader. The experiment was performed in triplicate and the percentage of biofilm inhibition was calculated as follows:Biofilm inhibition (%) = 100 − ((OD570 in sample treatment − OD570 in untreated bacteria)/(OD570 in untreated sample − OD570 in untreated bacteria) × 100) Sample treatment: adding peptides or antibiotics in bacterial suspensions; untreated bacteria: culture medium without bacteria and samples; untreated sample: bacterial suspension without samples.

[3] = system: P. aeruginosa DRPa 4007 biofilm; experiment: SEM analysis of biofilm on plastic coverslips; format: cell-based, Pseudomonas aeruginosa; settings: peptides 64 µM, ciprofloxacin 256 µM, 24 h on 48 h biofilm
Experimental: Figure 6 Image analysis of P. aeruginosa DRPa 4007 using scanning electron microscopy (SEM).
DRPa 4007 biofilms were formed on the plastic coverslips (12 mm dimension, SPL life science, Pocheon-si, Korea) for 48 h in BHI broth containing 2% (w/v) sucrose (1 × 10^8 CFU/mL) in a 24-well plate. […] The coverslips were rinsed using SP buffer and prefixed in 50 mM HEPES buffer (pH 8.0) containing 5% (v/v) glutaraldehyde for 2 h. After washing with SP buffer, they were dehydrated using the OTTIX shaper (Diapath S.p.A, Bergamo, Italy) and chemical-dried using hexamethyldisilazane. The coverslips coated with gold were observed under a field emission scanning electron microscopy (JSM-7100F, JEOL Ltd., Tokyo, Japan).

[4] = system: P. aeruginosa ATCC 27853 biofilm; experiment: Inhibition of biofilm formation, crystal violet staining; format: cell-based, Pseudomonas aeruginosa; settings: BHI + 2% sucrose, 24 h at 37 °C, crystal violet OD570
Experimental: as §4

[5] = system: Drug-Resistant P. aeruginosa (DRPa) 3904; experiment: microbe, parasite or virus in culture; format: cell-based, Pseudomonas aeruginosa; settings: microdilution, 10 mM sodium phosphate pH 7.2 + 20% MH broth, 24 h at 37 °C, OD600, triplicate
Experimental: as §2, §3

[6] = system: Drug-Resistant P. aeruginosa (DRPa) 4830; experiment: microbe, parasite or virus in culture; format: cell-based, Pseudomonas aeruginosa; settings: microdilution, 10 mM sodium phosphate pH 7.2 + 20% MH broth, 24 h at 37 °C, OD600, triplicate
Experimental: as §2, §3

[7] = system: Drug-Resistant P. aeruginosa (DRPa) 4007; experiment: microbe, parasite or virus in culture; format: cell-based, Pseudomonas aeruginosa; settings: microdilution, 10 mM sodium phosphate pH 7.2 + 20% MH broth, 24 h at 37 °C, OD600, triplicate
Experimental: as §2, §3

[8] = system: Drug-Resistant P. aeruginosa (DRPa) 5018; experiment: microbe, parasite or virus in culture; format: cell-based, Pseudomonas aeruginosa; settings: microdilution, 10 mM sodium phosphate pH 7.2 + 20% MH broth, 24 h at 37 °C, OD600, triplicate
Experimental: as §2, §3

[9] = system: Drug-Resistant P. aeruginosa (DRPa) 4891; experiment: microbe, parasite or virus in culture; format: cell-based, Pseudomonas aeruginosa; settings: microdilution, 10 mM sodium phosphate pH 7.2 + 20% MH broth, 24 h at 37 °C, OD600, triplicate
Experimental: as §2, §3

[10] = system: Biofilm EPS of P. aeruginosa DRPa 4007; experiment: Reduction of biofilm EPS components, fluorescent dyes and fluorescence microscopy; format: cell-based, Pseudomonas aeruginosa; settings: 64 µM, 24 h incubation; FITC-ConA, Nile red, DAPI, SYPRO red
Experimental: Figure 4 Eliminative action of peptides in biofilm extracellular polymeric substances (EPS). Biofilm EPS of P. aeruginosa DRPa 4007 in the absence or presence of peptides (64 µM) was stained by FITC-ConA for carbohydrates, Nile red for lipids, DAPI for nucleic acids, and SYPRO red for proteins and observed under fluorescence microscopy.
To investigate the eliminating ability of peptide, EPS components were analyzed using fluorescence microplate and microscopic analyses. After following the processes described in Section 3.7, the biofilm was washed with SP buffer and stained using four fluorescent dyes (DAPI for nucleic acids, Nile red for lipids, FITC-ConA for carbohydrates, and SYPRO red for proteins).

[11] = Pseudomonas aeruginosa, ATCC27853

Compound	MIC [6]	MIC [7]	further results
CC(C)(O/N=C(\C(=O)N[C@@H]1C(=O)N2C(C(=O)[O-])=C(C[n+]3ccccc3)CS[C@H]12)c1csc(N)n1)C(=O)O [Ceftazidime]	–	–	antibacterial activity against planktonic cells (planktonic DRPa 4007): remarkably inhibited; growth inhibition of planktonic cells [1]: at very low concentrations; MIC [2, 11]: 1 µM
O=C(O)c1cn(C2CC2)c2cc(N3CCNCC3)c(F)cc2c1=O [Ciprofloxacin]	–	–	inhibition at 64 µM (DRPa 4007 biofilm): 2.3%; antibacterial activity against planktonic cells (planktonic DRPa 4007): remarkably inhibited; growth inhibition of planktonic cells [1]: at very low concentrations; biofilm and bacteria on coverslip under SEM [3]: massive volume; inhibition of biofilm formation [4]: dose-dependent manner; MIC [2, 11]: 1 µM; MIC ([5]; Pseudomonas aeruginosa): > 256 µM; MIC ([6]; Pseudomonas aeruginosa): 64 µM; MIC ([7]; Pseudomonas aeruginosa): > 256 µM; MIC ([8]; Pseudomonas aeruginosa): > 256 µM; MIC ([9]; Pseudomonas aeruginosa): > 256 µM
CC[C@H](C)[C@H](NC(=O)CN)C(=O)NCC(=O)N[C@@H](C)C(=O)N[C@H](C(=O)N[C@@H](CC(C)C)C(=O)N[C@@H](CCCCN)C(=O)N[C@H](C(=O)N[C@@H](CC(C)C)C(=O)N[C@H](C(=O)N[C@H](C(=O)NCC(=O)N[C@@H](CC(C)C)C(=O)N1CCC[C@H]1C(=O)N[C@@H](C)C(=O)N[C@@H](CC(C)C)C(=O)N[C@H](C(=O)N[C@@H](CO)C(=O)N[C@@H](Cc1c[nH]c2ccccc12)C(=O)N[C@H](C(=O)N[C@@H](CCCCN)C(=O)N[C@@H](CCCNC(=N)N)C(=O)N[C@@H](CCCCN)C(=O)N[C@@H](CCCNC(=N)N)C(=O)N[C@@H](CCC(N)=O)C(=O)N[C@@H](CCC(N)=O)C(N)=O)[C@@H](C)CC)[C@@H](C)CC)[C@@H](C)O)[C@@H](C)O)C(C)C)C(C)C [Melittin]	4 µM	4 µM	removal of EPS components (carbohydrates, lipids, DNA, proteins) [10]: did not remove carbohydrates; MIC [2]: 2 µM; MIC [5]: 2 µM; MIC [8]: 4 µM; MIC [9]: 4 µM
NC[C@H]1O[C@H](O[C@H]2[C@H](O)[C@@H](O[C@H]3O[C@H](CO)[C@@H](O)[C@H](N)[C@H]3O)[C@H](N)C[C@@H]2N)[C@H](N)C[C@@H]1O [Tobramycin]	–	–	MIC [2, 11]: 0.25 µM
Cc1onc(-c2ccccc2)c1C(=O)N[C@@H]1C(=O)N2[C@@H]1SC(C)(C)[C@@H]2C(=O)O [oxacillin]	–	–	inhibition at 64 µM (DRPa 4007 biofilm): 3.4%; inhibition of biofilm formation [4]: dose-dependent manner
KKIIKKIIKKIWKW-NH2 [KIW-14]	2 µM	2 µM	–
KKIIKKIWKW-NH2 [KIW-10]	16 µM	16 µM	–
KKIWKKWIKI-NH2 [KWI-10]	8 µM	8 µM	–
KKIWKKWIKKIIKI-NH2 [KWI-14]	2 µM	1 µM	–
RRIIRRIWRW-NH2 [RIW-10]	16 µM	8 µM	–
RRIWRRWIRI-NH2 [RWI-10]	4 µM	8 µM	–
WIKKIWKKIIKEIK-NH2 [WIKE-14]	8 µM	8 µM	–
WIKKIWKKIIKKIK-NH2 [WIK-14]	2 µM	1 µM	–
WIKKIWKKIK-NH2 [WIK-10]	8 µM	8 µM	–
WIRRIWRRIR-NH2 [WIR-10]	4 µM	2 µM	–
